From patent US8455523B2, “Compositions and methods for treating hyperlipidemias” (The Research Foundation of State University of New York, priority 2010, dated 2013) come the findings set out here.

Experiment [1] deals with T1, MTP (Mus musculus, UniProt O08601).
T1 construct: small pieces (0.1 g) of liver and ˜1-cm segments of proximal small intestine were homogenized; from tissue; host or cells: mouse liver (C57BL/6J; Reversa mice in some experiments); supernatant of ultracentrifuged homogenate
T1 sequence (O08601 22-894): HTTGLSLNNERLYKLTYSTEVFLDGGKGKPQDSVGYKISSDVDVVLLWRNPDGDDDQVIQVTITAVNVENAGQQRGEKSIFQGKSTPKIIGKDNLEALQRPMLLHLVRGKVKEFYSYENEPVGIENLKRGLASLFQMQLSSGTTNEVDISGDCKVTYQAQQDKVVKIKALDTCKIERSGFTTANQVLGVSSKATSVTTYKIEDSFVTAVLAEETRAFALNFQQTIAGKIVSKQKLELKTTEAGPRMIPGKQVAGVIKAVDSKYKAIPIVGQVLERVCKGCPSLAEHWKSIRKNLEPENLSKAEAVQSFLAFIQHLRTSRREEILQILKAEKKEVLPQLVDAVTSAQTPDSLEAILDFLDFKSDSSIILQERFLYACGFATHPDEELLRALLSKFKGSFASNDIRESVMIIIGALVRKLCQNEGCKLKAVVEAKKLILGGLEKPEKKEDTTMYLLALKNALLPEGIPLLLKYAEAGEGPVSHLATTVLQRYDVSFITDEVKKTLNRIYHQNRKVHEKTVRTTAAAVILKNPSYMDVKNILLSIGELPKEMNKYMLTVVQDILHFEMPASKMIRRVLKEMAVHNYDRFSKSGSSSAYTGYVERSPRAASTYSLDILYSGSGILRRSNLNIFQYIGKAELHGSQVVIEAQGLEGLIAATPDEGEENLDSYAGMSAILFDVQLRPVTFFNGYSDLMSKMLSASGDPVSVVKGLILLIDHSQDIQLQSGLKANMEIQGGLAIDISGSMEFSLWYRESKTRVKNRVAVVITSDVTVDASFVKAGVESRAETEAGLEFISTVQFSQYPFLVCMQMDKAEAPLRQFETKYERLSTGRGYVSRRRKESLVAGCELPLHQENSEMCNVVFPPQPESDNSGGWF
T1 sequence (P09103 21-509 partner limits assumed): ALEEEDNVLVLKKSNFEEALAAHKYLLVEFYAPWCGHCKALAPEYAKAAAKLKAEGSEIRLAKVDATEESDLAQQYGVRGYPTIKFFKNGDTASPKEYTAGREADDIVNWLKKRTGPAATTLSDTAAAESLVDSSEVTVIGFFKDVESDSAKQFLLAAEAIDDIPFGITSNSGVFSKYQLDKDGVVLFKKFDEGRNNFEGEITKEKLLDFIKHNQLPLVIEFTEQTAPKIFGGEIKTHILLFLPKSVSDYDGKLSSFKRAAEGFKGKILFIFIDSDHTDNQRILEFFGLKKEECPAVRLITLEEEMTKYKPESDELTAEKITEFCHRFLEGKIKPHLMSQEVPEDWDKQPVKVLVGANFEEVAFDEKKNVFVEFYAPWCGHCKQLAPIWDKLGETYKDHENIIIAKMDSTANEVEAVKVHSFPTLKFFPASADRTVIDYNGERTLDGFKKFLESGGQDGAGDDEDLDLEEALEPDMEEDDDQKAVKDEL
As to the kind of experiment: Determination of MTP activity in tissues (liver homogenates of treated mice). The conditions noted are these: for MTP activity (liver): C57Bl/6J, MTPi 1 mg/kg/day oral one week, lovastatin 50 or pioglitazone 25 mg/kg/day added to MTPi; for MTP specific activity (liver): WD fed C57Bl/6J, drug alone, one week. It counts as in vivo. The protocol:
After extensive washes with ice-cold PBS, small pieces (0.1 g) of liver and ˜1-cm segments of proximal small intestine were homogenized with 1 ml of ice-cold 1 mM Tris-HCl, pH 7.6, 1 mM EGTA, and 1 mM MgCl2 buffer in a glass homogenizer. The homogenates were centrifuged (SW55 Ti rotor, 50,000 rpm, 10° C., 1 h), and supernatants were used for MTP assay as described before (41; 42) using a kit (Chylos, Inc.).

Experiment [2] relates to hepatic mRNA of ER stress, inflammation and lipid metabolism genes. In words: Hepatic mRNA quantification (qPCR, XBP-1 splicing) in treated mice. It counts as in vivo. To be noted: liver; for Bip, Ire1α, CHOP, PERK and ATF6 mRNA levels: BMS MTPi one week, lovastatin or pioglitazone with MTPi. An excerpt: FIGS. 6a and 6b. Liver samples from FIG. 16 were used to isolate total mRNA and to quantify expression of different candidate genes. Statistical analyses were as described in FIGS. 16-17.
FIGS. 9a and 9b. C57B/6J mice were fed a western diet for 8 weeks and then treated with MTP inhibitor and other indicated compounds for 8 days as described in FIG. 16. Liver samples were used to isolate mRNA and to quantify mRNA levels with different candidate genes. Stars on MTPi group represent comparison with the control group.
FIG. 16. Age matched wildtype C57/BL6J animals chow fed animals were treated with DMSO (control) or MTP inhibitor (MTPi) for one week. Age matched wildtype C57/BL6J were fed WD for one month and were administered MTPi, Lovastatin, (Lova), Pioglitazone (Pio) or 4-phenylbutyric acid (PBA) every day for one week. All drugs were administered by oral gavage. Animals were sacrificed on day 7 and livers were harvested. mRNA was extracted and subjected to qPCR analysis. * represent comparison DMSO control; # represent comparisons to WD control; @ represent comparisons to WD MTP inhibitor treated animals.
mRNA quantifications and primers used: Total RNA from tissues and cells were isolated using TriZol™ (Invitrogen). The purity and integrity of RNA were assessed by the A260/A280 ratio and 1% agarose gel electrophoresis, respectively. Only the RNAs with ratios more than 1.7 were used for cDNA synthesis. The first strand cDNA was synthesized using Omniscript RT (Qiagen) kit. Briefly, 2 μg of total RNA, 1 μM random primers (Invitrogen), 0.5 mM dNTP solution, and 0.5 U/μl Omniscript Reverse Transcriptase were incubated at 37° C. for 1 h in 20 μl of RT buffer and the reaction was terminated by incubating at 95° C. for 5 minutes. Each reaction of quantitative RT-PCR was carried out in a volume of 20 μl consisting of 5 μl cDNA sample (1:100 dilution of the first strand cDNA sample) and 15 μl of PCR master mix solution containing 1×PCR reaction buffer, 6 mM MgCl2, 200 nM primer pair, 0.025 U/μl HotStar Gold™ DNA polymerase, 200 μM dNTP solution, and 0.3 μl SYBR Green I solution (gPCR™ Core Kit for SYBR Green I, Eurogentec). The PCR was carried out by incubating the reaction mixture first for 10 minute at 95° C. followed by 40 cycles of 15 sec incubations at 95° C. and 1 min at 60° C. in the ABI 7000 SDS PCR machine. The data were analyzed using ΔΔCT method according to manufacturer's instruction and presented as arbitrary units. The primers used in this study were designed with the PrimerExpress 3.0 software (Applied Biosystems, CA) and are presented as Table 1.
(In qPCR the cycle at which signal appears reflects the starting amount.)

Where [3] appears, read: WD five weeks, treatment in last week, MTPi ± pioglitazone or lovastatin.
[4] abbreviates: WD 8 weeks, CP-346086 1 week ± lovastatin or WY14643.

For the compound `CCc1ccc(CCOc2ccc(CC3SC(=O)NC3=O)cc2)nc1` (racemic) [pioglitazone, (RS)-5-(4-[2-(5-ethylpyridin-2-yl)ethoxy]benzyl)thiazolidine-2,4-dione], in experiment [1], the “MTP activity (liver)” value is “not further affected” and the “MTP specific activity (liver)” value was “no effect”. In addition, the “hepatic MTP activity” value in experiment [1] (setting [3]) is “unaffected”. Also, the “Bip, Ire1α, CHOP, PERK and ATF6 mRNA levels” value in experiment [2] is listed as “significantly lower”.

For the compound `CC[C@H](C)C(=O)O[C@H]1C[C@@H](C)C=C2C=C[C@H](C)[C@H](CC[C@@H]3C[C@@H](O)CC(=O)O3)[C@H]21` [lovastatin], in experiment [1], the “MTP activity (liver)” value is reported as “not further affected”. The “hepatic MTP activity” value in experiment [1] (setting [4]) was “no further effect”; in experiment [1] (setting [3]), “unaffected”. Besides, the “MTP specific activity (liver)” value in experiment [1] is “no effect”. For the same compound, in experiment [2], the “Bip, Ire1α, CHOP, PERK and ATF6 mRNA levels” value was “significantly lower”.

As to `Cc1cccc(Nc2cc(Cl)nc(SCC(=O)O)n2)c1C` [WY14643], in experiment [1] (setting [4]), the “hepatic MTP activity” value is given as “no further effect”. Moreover, the “Ire1α mRNA and spliced form of XBP-1” value in experiment [2] (WD 8 weeks, CP-346086 ± lovastatin or WY14643, 8 days) was “no effect”.
